Laboratory results as given in US9884854B2, “N-[(pyrimidinylamino)propanyl]-and N[(pyrazinylamino)proppanyl]arylcarboxamides” (Boehringer Ingelheim International GmbH, priority 2016, dated 2018).

Target: T1, human orexin 2 receptor (Homo sapiens, UniProt O43614)
T1 construct: stably expressing the full-length human orexin 2 receptor and the aequorin photoprotein; expressed in transfected cells; host or cells: CHO-K1 (CHO-K1/hOx2), co-expressing aequorin
T1 sequence (O43614 1-444): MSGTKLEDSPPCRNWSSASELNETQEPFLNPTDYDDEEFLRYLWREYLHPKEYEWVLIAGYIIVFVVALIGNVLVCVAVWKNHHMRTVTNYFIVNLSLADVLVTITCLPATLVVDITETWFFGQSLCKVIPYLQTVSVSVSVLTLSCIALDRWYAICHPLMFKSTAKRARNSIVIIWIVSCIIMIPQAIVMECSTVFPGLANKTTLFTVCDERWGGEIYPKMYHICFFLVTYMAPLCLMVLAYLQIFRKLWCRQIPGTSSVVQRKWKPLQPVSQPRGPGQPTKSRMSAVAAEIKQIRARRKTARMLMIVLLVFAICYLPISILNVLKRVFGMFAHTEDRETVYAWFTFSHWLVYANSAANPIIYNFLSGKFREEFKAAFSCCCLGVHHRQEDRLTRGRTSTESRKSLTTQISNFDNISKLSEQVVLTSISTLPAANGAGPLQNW
Assay: Assay B: OX2R IP1 (in vitro OX2R potency)
Format: cell-based
Settings: 0.5 nM Orexin A concentration
Excerpt: Activation of the orexin receptors expressed in cell lines results in an increase in intracellular IP3 concentration. IP1, a downstream metabolite of IP3, accumulates in cells following receptor activation and is stable in the presence of LiCl. Using Homogeneous Time-Resolved Fluorescence technology with Lumi4-Tb cryptate (commercially available from Cisbio Bioassay.) and a suitable fluorescence plate reader. […] Chem. Genomics 2009, 3, 22-32. This technique is used to characterize pharmacological modification of the orexin receptors.
B. In Vitro Testing of OX2R Potency: OX2R IP1
IP1 measurements are performed in CHO-K1 cells stably expressing the full-length human orexin 2 receptor and the aequorin photoprotein. Cells are cultivated in Ham's nutrient mixture F12 medium with 10% fetal calf serum, in a 37° C., 95% humidity and 5% CO2 incubator. The CHO-K1/hOx2 cell mass is expanded to larger cell numbers. The cells are obtained as frozen cells in cryo-vials and stored until use at −150° C. The viability of the cells after thawing is >90%. In preparation for the assay, 24 hours before the assay, the cells are thawed at 37° C. and immediately diluted with cell culture medium. After centrifugation, the cell pellet is resuspended in medium and then distributed into the assay plates with a density of 5000 cells/25 μL per well. The plates are incubated for one hour at room temperature to reduce edge effects before they are incubated for 24 hours at 37° C./5% CO2. Compounds are prepared by a 8-point serial dilution in DMSO and a final dilution step into assay buffer (HBSS with 20 mM HEPES, 0.1% BSA and 50 mM LiCl, pH 7.4) to ensure a final DMSO concentration of 1% in the assay. On the day of the assay, cells in the plate are washed twice with 60 μL assay buffer (20 μL buffer remained in the wells after washing), followed by adding 5 μL per well of compounds diluted in assay buffer. After 15 minutes of incubation at room temperature 5 μL per well of Orexin A peptide (final concentration: 0.5 nM) dissolved in assay buffer is added to the assay plate. The assay plate is incubated for 60 minutes at 37° C. Then 5 μl per well of Anti-IP1-Cryptate Tb solution and 5 μl per well of IP1-d2 dilution are added to all well of the plate and the plate is incubated for a further 60 minutes light protected at room temperature. The emission at 615 nm and 665 nm (Excitation wavelength: 320 nm) are measured using an EnVision reader (PerkinElmer). The ratio between the emission at 665 nm and 615 is calculated by the reader.
8-point four parametric non-linear curve fitting and determination of IC50 values and Hill slopes is performed using a regular analysis software e.g. AssayExplorer (Accelrys). In order to establish an agonist concentration independent parameter, Kb values are calculated using the following equation: IC50/((2+(A/EC50)n)^1/n−1) (with A=concentration agonist, EC50=EC50 agonist, n=Hill slope agonist) (see P. Leff, I. G. Dougall, Trends Pharmacol. Sci. 1993, 14(4), 110-112).
Kb values from Assay A (OX1R) and Assay B (OX2R) can then provide a selectivity ratio which is independent of the agonist (Orexin A) concentration.

Row | SMILES | Kb [nM]
1 | CCN(C(=O)c1ccccc1-n1nccn1)[C@@H](C)CNc1ncc(C(F)(F)F)cn1 [Example 1] | 19.4
2 | CCN(C(=O)c1cccc(F)c1-n1nccn1)[C@@H](C)CNc1ncc(C(F)(F)F)cn1 [Example 18] | 18
3 | CCN(C(=O)c1nc(C)ccc1-n1nccn1)[C@@H](C)CNc1ncc(C(F)(F)F)cn1 [Example 9] | 32.9
4 | CCN(C(=O)c1cnc(C)nc1-c1ccccc1)[C@@H](C)CNc1ncc(C(F)(F)F)cn1 [Example 17] | 54
